Like-named read-outs stand apart in the source and are kept apart here.

Data set [1] has as its target T1, acid phosphatase derived from Morganella morganii (Morganella morganii, UniProt P28581).
T1 construct: homo-oligomer of about 25 kDa subunits; 20-residue signal peptide removed
T1 sequence (P28581 21-249): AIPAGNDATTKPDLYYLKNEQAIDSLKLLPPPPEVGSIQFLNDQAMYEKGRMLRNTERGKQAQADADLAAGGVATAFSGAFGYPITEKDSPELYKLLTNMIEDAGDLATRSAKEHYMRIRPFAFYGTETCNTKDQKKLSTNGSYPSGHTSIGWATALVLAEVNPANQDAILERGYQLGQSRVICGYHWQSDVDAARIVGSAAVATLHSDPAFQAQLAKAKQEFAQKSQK
Format: biochemical.

Data set [2] has as its target T2, acid phosphatase derived from Escherichia blattae (Shimwellia blattae, UniProt I2BB71).
T2 construct: homo-oligomer; 18-residue signal peptide removed
T2 sequence (I2BB71 19-249): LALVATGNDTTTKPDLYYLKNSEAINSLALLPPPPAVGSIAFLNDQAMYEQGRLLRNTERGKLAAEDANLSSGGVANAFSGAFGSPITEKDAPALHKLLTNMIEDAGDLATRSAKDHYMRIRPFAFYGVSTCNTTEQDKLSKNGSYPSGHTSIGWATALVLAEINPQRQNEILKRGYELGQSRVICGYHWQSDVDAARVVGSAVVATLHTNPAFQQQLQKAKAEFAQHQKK
Format: biochemical, Escherichia blattae JCM 1650.

Data set [3] addresses T3, acid phosphatase sample derived from Morganella morganii (Morganella morganii, UniProt P28581).
T3 construct: homo-oligomer; signal peptide removed
Description: Phosphorylation reaction of various nucleosides by acid phosphatase sample. Format: biochemical, Morganella morganii NCIMB 10466. As to conditions: sodium pyrophosphate 10 g/dl, nucleoside 2 g/dl, enzyme 50 units/dl, pH 4.0, 30° C., 3 hours. The protocol:
(§1) Incidentally, in the reaction to produce nucleoside-5'-phosphate esters using nucleosides other than inosine as raw materials, the nucleosides as raw materials and produced nucleoside-5'-phosphate esters were analyzed by HPLC as described above.
Sodium pyrophosphate (10 g/dl) and inosine (2 g/dl) were dissolved in sodium acetate buffers each having pH of 5.5, 5.0, 4.5, 4.0, and 3.5, to which the enzyme sample described above was added so that a concentration of 50 units/dl was obtained. […] Produced inosinic acid contained only 5'-inosinic acid. By-production of 2'-inosinic acid and 3'-inosinic acid was not observed at all. The velocity of 5'-inosinic acid production was maximum at pH 5.0. However, the maximum accumulated amount of 5'-inosinic acid was higher at lower pH. The reaction condition at pH 4.0 was most efficient for production of 5'-inosinic acid, in which 5'-inosinic acid was produced and accumulated in an amount of 2.60 g/dl by performing the reaction for 3 hours.
(§2) The reaction mixture was incubated at 30° C. for 3 hours while maintaining pH at 4.0.

Data set [4] concerns the target T4, acid phosphatase sample derived from Escherichia blattae (Shimwellia blattae, UniProt I2BB71).
T4 construct: homo-oligomer; signal peptide removed
The data set is described as above. Format: biochemical, Escherichia blattae JCM 1650. As to conditions: sodium pyrophosphate 15 g/dl, enzyme 50 units/dl, 3 hours; for Produced amount of nucleoside-5'-ester: nucleoside 3 g/dl, pH 4.0, 35° C. The procedure:
as §1
Sodium pyrophosphate (15 g/dl) and inosine (3 g/dl) were dissolved in sodium acetate buffers each having pH of 5.5, 5.0, 4.5, 4.0, and 3.5, to which the enzyme sample described above was added so that a concentration of 50 units/dl was obtained. […] Produced inosinic acid contained only 5'-inosinic acid. By-production of 2'-inosinic acid and 3'-inosinic acid was not observed at all. The velocity of 5'-inosinic acid production was maximum at pH 5.0. However, the maximum accumulated amount of 5'-inosinic acid was higher at lower pH. The reaction condition at pH 4.0 was most efficient for production of 5'-inosinic acid. 5'-Inosinic acid was produced and accumulated in an amount of 1.56 g/dl by performing the reaction at 30° C. at pH 4.0 for 3 hours.
The reaction mixture was incubated at 35° C. for 3 hours while maintaining pH at 4.0.

In data set [5] the test system is Escherichia coli JM109/pEPI330. The experiment in a line: Production of various nucleoside-5'-phosphate esters by microbial cells of the mutant strain. Format: cell-based. As to conditions: sodium pyrophosphate 12 g/dl, nucleoside 6 g/dl, cells 200 mg/dl dry weight, pH 4.0, 35° C., 32 hours. From the text: (§3) Produced nucleotide contained only nucleoside-5'-phosphate ester. By-production of nucleoside-2'-phosphate ester and nucleoside-3'-phosphate ester was not observed at all.

Data set [6] relates to Escherichia coli JM109/pMPI530. The description is as above. Format: cell-based. Conditions: sodium pyrophosphate 12 g/dl, nucleoside 6 g/dl, cells 100 mg/dl dry weight, pH 4.0, 30° C., 22 hours.
Description: as §3

Data set [7] deals with Escherichia coli JM109/pEPI330. The experiment in a line: Production of 5'-inosinic acid from various phosphate group donors by microbial cells of the mutant strain. Format: cell-based. As to conditions: inosine 6 g/dl, phosphate group donor 12 g/dl, cells 200 mg/dl dry weight, pH 4.0, 35° C., 32 hours. From the text:
(§4) 5'-Inosinic acid was efficiently produced and accumulated by using any of the phosphate group donors. However, the accumulated amount of 5'-inosinic acid was the highest when polyphosphoric acid was used as the phosphate group donor.

Data set [8] relates to Escherichia coli JM109/pMPI530. Described as above. Format: cell-based. As to conditions: inosine 6 g/dl, phosphate group donor 10 g/dl, cells 100 mg/dl dry weight, buffer pH 4.5, pH maintained at 4.0, 30° C., 22 hours.
Description: as §4

Data set [9] has as its target T3, acid phosphatase sample derived from Morganella morganii. The experiment in a line: Production of 5'-inosinic acid from various phosphate group donors by acid phosphatase sample. Format: biochemical, Morganella morganii NCIMB 10466. As to conditions: inosine 2 g/dl, phosphate group donor 10 g/dl, enzyme 50 units/dl, pH 4.0, 30° C., 3 hours. The procedure: as §2
Data set [10] deals with T4, acid phosphatase sample derived from Escherichia blattae. Described as above. Format: biochemical, Escherichia blattae JCM 1650. As to conditions: inosine 2 g/dl, phosphate group donor 10 g/dl, enzyme 50 units/dl, pH 4.0, 35° C., 3 hours. The protocol: The reaction miture was incubated at 35° C. for 3 hours while maintaining pH at 4.0.
The nature of data set [11]: Phosphomonoesterase activity (inosine produced by hydrolysis of 5'-inosinic acid). As to conditions: purified Morganella morganii enzyme. Format: biochemical. The protocol:
The phosphomonoesterase activity was measured under the following condition using 5'-inosinic acid as a substrate. The reaction was performed at 30° C. for 10 minutes in a reaction solution (1 ml) containing 10 μmol/ml of 5'-inosinic acid, 100 μmol/ml of MES/NaOH buffer (pH 6.0), and an enzyme. The reaction was stopped by adding 200 μl of 2 N hydrochloric acid. After that, precipitates were removed by centrifugation. Then, inosine produced by the hydrolytic reaction was quantitatively measured. An amount of enzyme to produce 1 μmol of inosine per 1 minute under this standard reaction condition was defined as 1 unit.
Inosine and 5'-inosinic acid were analyzed under the following condition by means of high-performance liquid chromatography (HPLC).

Data set [12] can be described thus: Properties of the purified acid phosphatase derived from Morganella morganii. Set-up: species or system Morganella morganii NCIMB 10466. The procedure: A nutrient medium (pH 7.0, 50 ml) containing 1 g/dl of peptone, 0.5 g/dl of yeast extract, and 1 g/dl of sodium chloride was poured into Sakaguchi flasks (500 ml), which was sterilized at 120° C. for 20 minutes. A slant culture of Morganella morganii NCIMB 10466 was inoculated to each of the flasks once with a platinum loop, which was cultivated at 30° C. for 16 hours with shaking. Microbial cells (about 3,000 g), which were harvested from a culture by centrifugation, were suspended in 100 mM potassium phosphate buffer (1 L, pH 7.0). A ultrasonic treatment was performed at 4° C. for 20 minutes to disrupt the microbial cells. The treated suspension was centrifuged to remove its insoluble fraction. Thus a cell-free extract was prepared.
The purified enzyme had the following properties.

The mark [13] stands for this setting: purified Morganella morganii enzyme.
The mark [14] stands for this setting: purified Escherichia blattae enzyme.

On to `[Ag+2]` [Ag^2+], for which the “Effect of the addition of metal ion and inhibitor on enzyme activity” value in data set [1] (setting [13]) and in data set [2] (setting [14]) was “inhibited” in each case.

On to `[Cu+2]` [Cu^2+], for which the “Effect of the addition of metal ion and inhibitor on enzyme activity” value in data set [1] (setting [13]) and in data set [2] (setting [14]) was “inhibited” throughout.

Regarding `Nc1ccn([C@@H]2O[C@H](CO)[C@@H](O)[C@H]2O)c(=O)n1` [Cytidine, cytidine], the “Produced amount of nucleoside-5'-ester” value in [3] came out at 0.98 g/dL; in data set [4], 1.22 g/dL. The “Produced amount of nucleoside-5'-phosphate ester” value was found to be 6.60 g/dL in data set [5] and 7.82 g/dL in [6].

On to `NC(=O)OP(=O)([O-])[O-].[Na+].[Na+]` [Disodium carbamyl phosphate, disodium carbamyl phosphate], for which the “Produced 5'-inosinic acid” value in data set [7] was determined as 7.73 g/dL; in [8], 9.89 g/dL; in data set [9], 2.54 g/dL; in [10] it was 1.53 g/dL.

On to `O=P([O-])([O-])Oc1ccccc1.[Na+].[Na+]` [Disodium phenylphosphate, disodium phenylphosphate], for which the “Produced 5'-inosinic acid” value in data set [7] was 7.60 g/dL; in [8], 9.62 g/dL; in [9], 2.33 g/dL; in data set [10], 1.50 g/dL.

As to `[Fe+2]` [Fe^2+], the “Effect of the addition of metal ion and inhibitor on enzyme activity” value in data set [2] (setting [14]) is listed as “inhibited”.

Regarding `Nc1nc2c(ncn2[C@@H]2O[C@H](CO)[C@@H](O)[C@H]2O)c(=O)[nH]1` [Guanosine, guanosine], the “Produced amount of nucleoside-5'-ester” value was 1.90 g/dL in data set [3] and 1.05 g/dL in data set [4]. Moreover, the results for the “Produced amount of nucleoside-5'-phosphate ester” value in data set [5] and in data set [6] were 4.77 g/dL and 6.72 g/dL, respectively.

`[Hg+2]` [Hg^2+]: the “Effect of the addition of metal ion and inhibitor on enzyme activity” value in data set [1] (setting [13]) and in data set [2] (setting [14]) was “inhibited” throughout.

With `OC[C@H]1O[C@@H](n2cnc3c(O)ncnc32)[C@H](O)[C@@H]1O` [Inosine, inosine], the “Produced amount of nucleoside-5'-ester” value in [3] came out at 2.60 g/dL; in data set [4], 1.56 g/dL. Moreover, in data set [4] (inosine 3 g/dl, pH 4.0, 30° C.), the “5'-inosinic acid produced and accumulated” value was determined as 1.56 g/dL. Moreover, the “Produced amount of nucleoside-5'-phosphate ester” value in data set [5] is 7.45 g/dL; in data set [6], 10.01 g/dL.

Consider `[Pb+2]` [Pb^2+], for which the “Effect of the addition of metal ion and inhibitor on enzyme activity” value in data set [1] (setting [13]) and in [2] (setting [14]) was “inhibited” in each case.

`O=P(O)(O)OP(=O)(O)OP(=O)(O)O` [Sodium tripolyphosphate, sodium tripolyphosphate]: the “Produced 5'-inosinic acid” value is 5.96 g/dL in data set [7], 8.93 g/dL in data set [8], 2.10 g/dL in [9] and 1.20 g/dL in data set [10].

In the case of `O=c1ccn([C@@H]2O[C@H](CO)[C@@H](O)[C@H]2O)c(=O)[nH]1` [Uridine, uridine], the figures for the “Produced amount of nucleoside-5'-ester” value in [3] and in data set [4] were 1.30 g/dL and 1.87 g/dL, respectively. Further, the “Produced amount of nucleoside-5'-phosphate ester” value was 8.93 g/dL in [5] and 11.90 g/dL in [6].

Take `O=C(O)CI` [iodoacetic acid]: the “Effect of the addition of metal ion and inhibitor on enzyme activity” value in [1] and in data set [2] was “inhibited” throughout.

In the case of sodium polyphosphate, the “Produced 5'-inosinic acid” value in [7] was found to be 8.84 g/dL; in data set [8], 11.45 g/dL; in [9], 2.72 g/dL; in data set [10], 1.79 g/dL.

B1: acid phosphatase derived from Morganella morganii: enzyme purified from cell-free extract of Morganella morganii NCIMB 10466; mature protein SEQ ID NO: 4 (protein)
chain: T1 sequence (P28581 21-249)
Take B1: in data set [11], the “phosphate ester hydrolytic activity (phosphomonoestrase activity) relative to transphosphorylation activity” value is given as “not less than 20 times”. Also, the Optimum temperature entry in data set [12] was “about 35 °C”. The “Optimum pH” value in data set [12] (phosphate ester hydrolytic reaction) is on record as 6.5; in data set [12] (transphosphorylation reaction), 5.2. For the same molecule, the Temperature stability entry in [12] (treatment at pH 7.0 for 30 minutes) was “up to 30 °C”.

These data come from patent US6010851A, “Method for producing nucleoside-5'-phosphate ester” (Ajinomoto Co., Inc., priority 1995, dated 2000).
